According to patent US9931342B2, “Compositions and methods for the treatment of cancer” (Duke University, priority 2016, dated 2018):

What was measured:
1833 breast cancer cells = test: Breast cancer bone metastasis after intra-cardiac injection of 1833 cells in mice; format: in vivo
Text: (A) Experimental design. (B) Survival of mice after intra-cardiac injection of 1833 (1×10^5) breast cancer cells and treatment with either dimethyl sulfoxide (DMSO) control or the allosteric ABL inhibitor GNF5. n=10 mice per group. (C) Bioluminescent images of representative mice at day 22 after inoculation. (D) Quantification of bone metastases. n=10 mice per group. (E and F) Representative H&E staining (E) and quantification (F) of H&E stained tumor area of bone lesions. Arrows indicate tumor. n=3 mice per group. Scale bar, 200 μm. (G and H) Representative x-ray and μCT reconstruction (G) of mouse tibias and quantification (H) of bone volume/total volume. n=3 mice per group.
Procedures involving mice were approved and performed following the guidelines of the Institutional Animal Care and Use Committee (IACUC) of Duke University Division of Laboratory Animal Resources (DLAR). Age-matched female athymic NCr nu/nu mice (5 to 6 weeks old) were used for xenograft experiments. For intra-cardiac injections, cells were harvested from sub-confluent culture plates, washed with phosphate-buffered saline (PBS), and resuspended at 106/ml (1833) or 5×10^6/ml (SCP28) in PBS; 0.1 ml of the suspended cells was injected into the left cardiac ventricle using 30-gauge needles. Mice were anesthetized with isoflurane before injection and imaged by bioluminescence imaging. For intra-tibial injections, mice were anesthetized using a mixture of ketamine (100 mg/kg) and xylazine (10 mg/kg). The injection site was cleaned with a 70% alcohol wipe. Single-cell suspensions (1×10^5 cells) in a final volume of […] were injected into the upper half of the tibia medullary cavity, as felt by a lack of resistance when pushing cells into the cavity. Bioluminescence imaging was used to confirm successful cancer cell inoculation and progression of metastatic bone lesions. The allosteric inhibitor GNF5 was synthesized by the Duke University Small Molecule Synthesis Facility. For drug treatment, the mice were dosed daily with GNF5 in DMSO/peanut oil (1:9) at 50 mg/kg by intraperitoneal injection.
Hind limb bones were excised, fixed in 10% neutral-buffered formalin, and imaged using a μCT scanner (SkyScan 1176, Bruker Corp.) at […] and 180° scanning with a rotation step of 0.7° per image, 242-ms exposure time, 55-kV photon energy, and […]. The images were reconstructed using NReconServer, and bone volume was analyzed by CT analysis software (CTAn, Bruker Corp.).
Hind limb bones were excised, fixed in 10% neutral-buffered formalin, decalcified, and embedded in paraffin for H&E staining (Zhang et al., Cancer Cell, 2009).

RAF-ERK pathway = test: ERK activation, Western blot of 1833 breast cancer cell lysates; format: cell-based, human; settings: 10 μM, 3 hours, 1833 cells
Description: (§1) Cells were lysed in radio-immunoprecipitation assay buffer with protease and phosphatase inhibitors. Cell debris was removed by microcentrifugation, and protein was quantified. Alternatively, equal cell numbers were plated onto six-well plates, and 24 hours later, conditioned medium was harvested and concentrated using Amicon Ultra Centrifugal Filters (Millipore). Equal amounts of protein or conditioned medium were separated by SDS-polyacrylamide gel electrophoresis and transferred onto nitrocellulose membranes and probed with the indicated antibodies.

TAZ = TAZ protein abundance, immunoblot of 1833 cells; format: cell-based, human; settings: 20 μM, 24 hours
Description: Control 1833 cells or 1833 cells expressing murine Ab12-E505K mutant protein were plated (3×10^5 cells per group) in six well plates. Cells were then treated with vehicle (DMSO) or GNF5 (20 μM) for 24 hours and immunoblotted with the indicated antibodies. n=3 blots.
as §1

FH-deficient HLRCC = settings: cited from earlier work
[1] = 50 mg/kg daily i.p. starting day 8

Compound	bone destruction (x-ray, μCT) (1833 breast cancer cells; [1])	bone tumor burden by histological analyses (H&E) (1833 breast cancer cells; [1])	bone metastasis burden by bioluminescence imaging (1833 breast cancer cells; 50 mg/kg daily i.p. starting day 8, day 22 imaging)	ratio of bone volume to total volume (μCT) (1833 breast cancer cells; 50 mg/kg daily i.p. starting day 8, mouse tibias)	survival of tumor-bearing mice (1833 breast cancer cells; 50 mg/kg daily i.p. starting day 8 after intra-cardiac injection)	ERK activation (phospho-Erk) (RAF-ERK pathway)	TAZ protein abundance (TAZ; 1833 cells expressing murine ABL2-E505K (GNF5-resistant mutant))	TAZ protein abundance (TAZ; control 1833 cells)	cytotoxicity to FH-deficient HLRCC (FH-deficient HLRCC)
O=C(NCCO)c1cccc(-c2cc(Nc3ccc(OC(F)(F)F)cc3)ncn2)c1 [GNF5]	decreased	decrease	decrease	increased	significant increase	does not activate	not decreased	decreased	
Cc1ccc(NC(=O)c2ccc(CN3CCN(C)CC3)cc2)cc1Nc1nccc(-c2cccnc2)n1 [imatinib]						promotes ERK activation			cytotoxic
COc1cc2c(Nc3ccc(Br)cc3F)ncnc2cc1OCC1CCN(C)CC1 [vandetanib]									cytotoxic
